“Also recorded” adds a separate entry of the source.
Key:
[1] = system: human primary astrocytes; assay: Activation of human primary astrocytes with IL-1β or poly(I:C), qPCR; assay type: cell-based; details: PDMP 25 μM; IL-1β 10 ng/ml or Poly (I:C) 10 μg/ml, 6 h
Excerpt: FIG. 6a-d. […] Autopsy samples were obtained from lesions (n=10) or NAWM (n=5) from MS, non-MS CNS inflammatory diseases (NMSCID, including viral encephalitis, Rasmussen's encephalitis and ADEM, n=5) patients and healthy controls (n=6). (a) qPCR analysis of B4GALT5 and B4GALT6 mRNA expression in CNS samples relative to ACTB. (b) IF analysis of B4GALT6, CCL2 and iNOS in GFAP+ astrocytes in NAWM and Lesion of MS patients. (c) LacCer levels determined in CNS samples, relative to protein content. Statistical analysis by one-way ANOVA, followed by Tukey post-hoc analysis. (d) Primary human astrocytes were pre-treated with PDMP (25 μM) or vehicle, and activated with IL-1β (10 ng/ml) or Poly (I:C) (10 μg/ml) or left untreated (control). RNA was harvested 6 h later and the expression of CCL2, CCL5, COX2, IL6, NOS2, and TLR2 was analyzed by qPCR relative to ACTB in 3 independent experiments. Statistical analysis by Student's t-test. Data presented are mean and s.e.m. *P<0.05, **P<0.01 and ***P<0.001.
Human fetal astrocytes were isolated as previously described^57 from human CNS tissue from fetuses at 17-23 wk of gestation obtained from the Human Fetal Tissue Repository (Albert Einstein College of Medicine, Bronx, N.Y.) following Canadian Institutes for Health Research-approved guidelines. Cultures were >90% pure.

[2] = system: Ly6C^high monocytes; assay: Viability assay, monocytes; assay type: cell-based, mouse; details: 1 h pre-treatment, 3 h
[3] = system: microglia and CNS-infiltrating monocytes; assay: mRNA expression in microglia and CNS-infiltrating monocytes from EAE NOD mice; assay type: in vivo, mouse
Excerpt: FIGS. 5a-m. B4GALT6 in astrocytes regulates the activation of microglia and CNS-infiltrating monocytes. (a) Heatmap depicting mRNA expression, as determined by nCounter Nanostring analysis, in microglia from naïve or EAE NOD mice treated with PDMP or vehicle. Representative data of three independent experiments. Statistical analysis by Student's t-test. (b) qPCR analysis of ccl5, il1b, opn, nos2, cd40, and H2-Aa gene expression relative to Gapdh. (c, d) Mean normalized expression of genes associated with M1- or M2-phenotype in microglia (Table 3) (c) and Ly6C^high monocytes (d). Statistical analysis by Student's t-test. (e-h) primary microglia were pre-treated with PDMP, LacCer, or vehicle, followed by activation with LPS/IFNγ for 6 h or left un-treated (control) as in (FIG. 3a). mRNA expression was determined by nCounter Nanostring analysis (e, g), and microglial viability was determined (f, h). Representative data of five independent experiments. (i) Mixed glia cultures were treated with mild trypsin/EDTA (T/E) to remove the astrocyte monolayer leaving only the microglia attached to the plate, or left un-treated. Cultures were pre-treated with PDMP, LacCer or vehicle, and activated with LPS/IFNγ for 6 h. Following activation, both cultures were washed, and incubated with mild T/E to remove the astrocytes; thus, leaving only the microglia (MG) attached to the plates. RNA was harvested from microglia treated in the absence [MG (pure)] or presence [MG (mixed)] of astrocytes and gene expression was analyzed by qPCR for the expression ccl2, ccl5 and nos2 relative to gapdh. Data present the relative effect of PDMP (left panel) or LacCer (right panel) pre-treatment on LPS/IFNγ-triggered gene induction, from five independent experiments. Statistical analysis by Student's t-test. (j) Mixed glia were pre-treated with indicated blocking antibodies or appropriate isotype controls (25 μg/ml) and LacCer […] or vehicle control, and then activated with LPS/IFNγ for 6 h. Microglia were isolated as in (i), and microglial-nos2 expression was determined by qRT relative to gapdh and presented as in (i). Representative data of three independent experiments. (k) ChIP analysis of the interaction of NF-κB, and IRF-1 with the csf2 promoter in primary cultured astrocytes. (l, m) Expression csf2 in astrocytes (l) and nos2 in microglial cells (m) isolated form the CNS of chronic EAE NOD mice, 10 days after the i.c.v. injection of astrocytes-specific shRNA lentivirus as in (FIG. 3j). Data from two independent experiments. For all data, means and s.e.m. are shown. *P<0.05, **P<0.01, ***P<0.001 and n.s. not significant.
Mononuclear cells were isolated from the CNS as previously described^50 with minor modifications. […]

[4] = system: choroid plexus cells; assay: Transcriptional response of choroid plexus cells to LPS/IFNγ; assay type: cell-based, mouse; details: LacCer 10 μM 1 h, LPS/IFNγ 6 h
Experimental: FIGS. 15a-b. […] Leptomeningeal phagocytes (a) and choroid plexus cells (b) were pre-treated for 1 h with LacCer (10 μM), or vehicle control (vehicle), followed by activation with LPS/IFNγ for 6 h, or left un-treated (control, Con). mRNA expression was determined by nCounter Nanostring analysis. Representative data of two independent experiments.
Mouse primary choroid plexus cells were prepared as described^55,56 with minor modifications. In brief, the choroid plexus was removed from 1- to 3-day-old neonatal mice, digested with 1% collagenase for 20 min at 37° C., and then dispersed into a single-cell level. The cell suspension was washed in culture medium for choroid plexus cells [Dulbecco's modified Eagle medium/Ham's F12 (Invitrogen) supplemented with 10% foetal calf serum (Sigma-Aldrich), 1 mM 1-glutamine, 1 mM sodium pyruvate, 100 U/ml penicillin, […] streptomycin, […] insulin, […] Ara-C) and cultured (2.5×10^5 cells/well) at 37° C., 5% CO2 in poly-D-lysine coated 24-well plates. After 24 h, the medium was changed, and the cells were either left untreated or treated as described.

Compound | CCL2, CCL5, COX2, IL6, NOS2 and TLR2 expression [1] | viability of purified Ly6C^high monocytes [2] | M1-associated genes in microglia and CNS-infiltrating monocytes ([3]; NOD EAE) | M2-associated genes in microglia and CNS-infiltrating monocytes ([3]; NOD EAE) | expression of genes associated with microglia activation ([3]; microglia from NOD EAE progressive phase) | transcriptional response to activation of choroid plexus cells [4] | nos2 expression in microglia ([3]; chronic NOD EAE, 10 days after i.c.v. shRNA lentivirus)
CCCCCCCCCC(=O)N[C@H](CN1CCOCC1)[C@H](O)c1ccccc1 [PDMP, D-threo-1-phenyl-2-decanoylamino-3-morpholino-1-propanol] | significant decrease | did not affect | significant down regulation | up-regulation | reduced the expression |  | 
lactosylceramide [LacCer] |  | did not affect |  |  |  | did not affect the transcriptional response; also recorded: does not affect the transcriptional response | 
shB4galt6: lentivirus-delivered shRNA against b4galt6 (TRCN0000334278; SEQ ID NO:3) (guide CGATGGACTGAACAATTTATTCTCGAGAATAAATTGTTCAGTCCACG) |  |  |  |  |  |  | decreased nos2 expression
